Measurements: patent US20250136581A1, “SUBSTITUTED TRIAZOLE DERIVATIVE, PREPARATION METHOD THEREFOR, PHARMACEUTICAL COMPOSITION THEREOF, AND USE THEREOF” (SHANGHAI SIMR BIOTECHNOLOGY CO., LTD., priority 2021, published 2025)

Key:
[1] = target: human α5β3γ2 receptors (α5-GABAA receptor) (Homo sapiens (Human), UniProt P18507+P31644); assay: 3H-flunitrazepam competition binding, human α5β3γ2 GABAA receptor; settings: HEK293 cell membranes, 1 nM 3H-flunitrazepam; read-out: α5-GABAAR Ki
Outline: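 Radioligand displacement of 1 nM 3H-flunitrazepam from membranes of HEK293 lines stably expressing the human subtypes, 1 h at room temperature, compound in 8-point 4-fold series. Bound label on GF/C filters counted by scintillation; Ki derived from fitted IC50, with flumazenil as low control.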

[2] = Rat pharmacokinetic experiment; format: in vivo; settings: rat, po, 3 mg/kg
Method: The maximum plasma concentration (Cmax) in the rat pharmacokinetic experiment was used to evaluate the absorption of the compounds in rat in vivo. The experimental compound was dissolved and then orally administered by gavage (p.o.) to male SD rats. The rats were fasted overnight before drug administration, and blood was collected via venipuncture at 0.25, 0.5, 1, 2, 4, and 7 hours post dose. Approximately 100 μL blood was collected for each sample; at the same time, the whole brain was taken and homogenized with 3 times the amount of PBS for analysis. The […] method was used to determine drug concentrations in plasma and brain tissue, and the proportion of compounds entering the brain (B/P) was calculated based on the AUC of the compound. Pharmacokinetic parameters were calculated using Phoenix WinNonlin 7.0. The administration vehicle was 5% CMC-Na aqueous solution.

human MDR1 P-gp = assay: MDCKII-MDR1 permeability; format: in vitro ADME, canine; settings: dog
Method: Brain permeability of compounds was assessed by measuring compound efflux in Madin-Darby canine kidney-II (MDCKII) cells transfected with the human MDR1 gene (Drug metabolism and disposition, 2008, 36(2), 268-275).
The active transport mechanism was mediated by uptake and efflux transporters expressed on MDCKII-MDR1 cells, primarily by overexpressed human MDR1 P-gp.
MDCKII-MDR1 cells were seeded on the polycarbonate microporous membrane of Transwell™ at a density of (0.85 to 5.0)×10^6/cm^2, and used for experiments when the cells reached complete confluence (3 to 5 d). […] At the beginning and end of the experiment, samples were collected from the transport solution side. After incubation for a certain period of time (1.5 hours), samples were also collected from the buffer side, and the concentration was determined by HPLC-MS/MS or scintillation counting.

Ki [1]: 0.91 nM | Kp ([2]; male, SD, brain / plasma, read-out: B/P (proportion of compounds entering the brain)): 0.0015 | Cmax ([2]; plasma, male SD rats): 1510 ng/mL | efflux ratio at 1.5 h (human MDR1 P-gp; MDCK-MDR1, pH 7.4, Papp (B-A)/Papp (A-B), read-out: Efflux ratio (ER)): 7.52 | Papp A→B at 1.5 h (human MDR1 P-gp; MDCK-MDR1, pH 7.4, 37° C., 1.5 hours): 4.16 ×10⁻⁶ cm/s
Compound: Cc1nnn(-c2ccc(C(F)F)cc2)c1COc1ccc(N2CC(=O)NC(C)C2)nn1 (centres unmarked) [Example 6, 4-(6-((1-(4-(Difluoromethyl)phenyl)-4-methyl-1H-1,2,3-triazol-5-yl)methoxy)pyridazin-3-yl)-6-methylpiperazin-2-one]
